{
  "source": "patent US10829778B2",
  "about": "“Plants having increased tolerance to herbicides” (BASF SE, priority 2013, dated 2020)",
  "key": {"Chlamydomonas HPPD1a": {"test_system": "Chlamydomonas HPPD1a", "assay": "HPPD activity assay, wildtype enzyme", "type": "biochemical, Chlamydomonas reinhardtii", "conditions": "Table 12, normalized to Arabidopsis HPPD", "experimental": "(§1) HPPD produces homogentisic acid and CO2 from 4-hydroxyphenylpyruvate (4-HPP) and O2. The activity assay for HPPD is based on the analysis of homogentisic acid by reversed phase HPLC.\n(§2) The assay mixture can contain 150 mM potassium phosphate buffer pH 7.0, 50 mM L-ascorbic acid, 100 μM Catalase (Sigma-Aldrich), 1 μM FeSO4 and 0.2 units of purified HPPD enzyme in a total volume of 505 μl. 1 unit is defined as the amount of enzyme that is required to produce 1 nmol of HGA per minute at 20° C.\n(§3) After a preincubation of 30 min the reaction is started by adding 4-HPP to a final concentration of 0.05 mM. The reaction is allowed to proceed for 45 min at room temperature. The reaction is stopped by the addition of 50 μl of 4.5 M phosphoric acid. The sample is filtered using a […] pore size PVDF filtration device.\n(§4) 5 μl of the cleared sample is analyzed on an UPLC HSS T3 column (particle size 1.8 μm, dimensions 2.1×50 mm; Waters) by isocratic elution using 90% 20 mM NaH2PO4 pH 2.2, 10% methanol (v/v).\n(§5) HGA is detected electrochemically at 750 mV (mode: DC; polarity: positive) and quantified by integrating peak areas (Empower software; Waters).\n(§6) Inhibitors are dissolved in DMSO (dimethylsulfoxide) to a concentration of 0.5 mM. From this stock solution serial five-fold dilutions are prepared in DMSO, which are used in the assay. […] IC50 values are calculated using non-linear regression. […]"}, "Picrophilus HPPD": {"test_system": "Picrophilus HPPD", "assay": "HPPD activity assay, wildtype enzyme", "type": "biochemical, Picrophilus torridus", "conditions": "Table 12, normalized to Arabidopsis HPPD", "experimental": "as §1, §2, §3, §4, §5, §6"}, "[1]": {"target": "T1, Hordeum HPPD (SEQ ID NO:2) (Hordeum vulgare, UniProt O48604, A164G/R146V/R147D/R148G)", "T1 construct": "subcloned into a modified pET24D (Novagen) expression vector resulting in N-terminally His-tagged expression constructs; His tag (N); made in house; host or cells: E. coli BL21 (DE3)", "T1 sequence (O48604 whole entry R146V/R147D/R148G/A164G)": "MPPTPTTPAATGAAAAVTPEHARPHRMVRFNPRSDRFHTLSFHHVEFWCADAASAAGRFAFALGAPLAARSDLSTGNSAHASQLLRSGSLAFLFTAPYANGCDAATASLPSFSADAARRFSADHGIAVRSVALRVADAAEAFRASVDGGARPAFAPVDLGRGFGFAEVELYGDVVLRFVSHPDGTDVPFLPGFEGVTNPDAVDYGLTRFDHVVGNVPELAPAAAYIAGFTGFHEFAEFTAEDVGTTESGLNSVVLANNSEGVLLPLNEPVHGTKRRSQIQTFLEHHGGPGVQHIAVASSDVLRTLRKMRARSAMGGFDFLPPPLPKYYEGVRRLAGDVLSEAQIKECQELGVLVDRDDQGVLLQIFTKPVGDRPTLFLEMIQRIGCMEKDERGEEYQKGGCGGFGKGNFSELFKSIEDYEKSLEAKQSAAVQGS", "assay": "HPPD activity assay (HGA by HPLC), wildtype enzyme", "type": "biochemical", "experimental": "as §1, §2, §3, §4, §5\nInhibitors are dissolved in DMSO (dimethylsulfoxide) to a concentration of 0.5 mM. From this stock solution serial five-fold dilutions are prepared in DMSO, which are used in the assay. The respective inhibitor solution accounts for 1% of the assay volume. […] Activities are normalized by setting the uninhibited enzyme activity to 100%. IC50 values are calculated using non-linear regression.\nUsing methods which are described in the above examples or well known in the art, purified, recombinant wildtype HPPD enzymes are characterized with respect to their kinetic properties and sensitivity towards HPPD inhibiting herbicides. Apparent michaelis constants (Km) and maximal reaction velocities (Vmax) are calculated by non-linear regression with the software GraphPad Prism 5 (GraphPad Software, La Jolla, USA) using a substrate inhibition model. […] Weighted means (by standard error) of Km and IC50 values are calculated from at least three independent experiments.\nField performance of the HPPD enzyme, which is used as a herbicide tolerance trait may depend not only on its lack of sensitivity towards HPPD inhibiting herbicides but also on its activity. To assess the potential performance of a herbicide tolerance trait a tolerance index (TI) is calculated using the following formula: […]\nEasy comparison and ranking of each trait is enabled by normalizing tolerance indexes on Arabidopsis wild-type HPPD."}, "[2]": {"test_system": "transgenic Arabidopsis plants expressing HvHPPD L320H", "assay": "Greenhouse herbicide spray test, transgenic Arabidopsis plants (T2)", "type": "in vivo, Arabidopsis thaliana", "conditions": "for Injury evaluation: HvHPPD L320H, two weeks after treatment", "text": "(§7) For post emergence treatment, the test plants are first grown to a height of 3 to 15 cm, depending on the plant habit, and only then treated with the herbicides. For this purpose, the test plants are either sown directly and grown in the same containers, or they are first grown separately and transplanted into the test containers a few days prior to treatment.\n(§8) Additionally, T1 and T2 transgenic Arabidopsis plants can be tested for improved tolerance to N-heterocyclyl-arylcarboxamides in a greenhouse studies. Herbicide injury scoring is done 2-3 weeks after treatment and is rated on a scale of 0 to 100%, 0% being no injury and 100% being complete death."}, "[3]": {"test_system": "transgenic Arabidopsis plants expressing AtHPPD M335H, P336A, E363Q", "assay": "Greenhouse herbicide spray test, transgenic Arabidopsis plants (T2)", "type": "in vivo, Arabidopsis thaliana", "conditions": "two weeks after treatment", "text": "as §7, §8"}, "[4]": {"test_system": "transgenic Arabidopsis plants expressing AtHPPD M335Y, P336A, E363Q", "assay": "Greenhouse herbicide spray test, transgenic Arabidopsis plants (T2)", "type": "in vivo, Arabidopsis thaliana", "conditions": "two weeks after treatment", "text": "as §7, §8"}, "[5]": {"test_system": "transgenic Arabidopsis plants expressing HvHPPD L320H, P321A", "assay": "Greenhouse herbicide spray test, transgenic Arabidopsis plants (T2)", "type": "in vivo, Arabidopsis thaliana", "conditions": "for Injury evaluation: P321A, two weeks after treatment", "text": "as §7, §8"}, "Avena HPPD": {"test_system": "Avena HPPD", "assay": "HPPD activity assay, wildtype enzyme", "type": "biochemical, Avena sativa", "conditions": "Table 12, normalized to Arabidopsis HPPD", "experimental": "as §1, §2, §3, §4, §5, §6"}},
  "data": [
    {"compound": "Cc1nonc1NC(=O)c1ccc(S(C)(=O)=O)c(S(C)(=O)=O)c1C", "note": "[Inhibitor 1, 2-methyl-N-(4-methyl-1,2,5-oxadiazol-3-yl)-3,4-bis(methylsulfonyl)benzamide]", "values": [
      {"measurement": "Normalized tolerance index TI Inhibitor 1", "setting": "Chlamydomonas HPPD1a", "result": 1.7},
      {"measurement": "Normalized tolerance index TI Inhibitor 1", "setting": "Picrophilus HPPD", "result": 5.4},
      {"measurement": "Ki", "setting": "[1]", "result": 5.6, "unit": "nM"},
      {"measurement": "Normalized tolerance index TI Inhibitor 1", "setting": "[1]; Table 12, normalized to Arabidopsis HPPD, Hordeum", "result": 1.5},
      {"measurement": "Normalized tolerance index TI Inhibitor 1", "setting": "[1]; Table 16, Hordeum HPPD Wildtype (reference)", "result": 1},
      {"measurement": "TI (tolerance index)", "setting": "[1]; not normalized, Table 11, Hordeum enzyme", "result": "2.5E−3"},
      {"measurement": "increased tolerance versus wild-type plants", "setting": "[2]; HvHPPD L320H plants, dose of 3.125 g/ha", "result": "~20", "unit": "fold"},
      {"measurement": "Injury evaluation", "setting": "[2]; 1.56 g/ha", "result": 0, "unit": "%"},
      {"measurement": "Injury evaluation", "setting": "[2]; 3.125 g/ha", "result": 5, "unit": "%"},
      {"measurement": "Injury evaluation", "setting": "[2]; 6.25 g/ha", "result": 20, "unit": "%"},
      {"measurement": "Injury evaluation", "setting": "[2]; 12.5 g/ha", "result": 27, "unit": "%"},
      {"measurement": "Injury evaluation", "setting": "[3]; 1.56 g/ha", "result": 3, "unit": "%"},
      {"measurement": "Injury evaluation", "setting": "[3]; 3.125 g/ha", "result": 13, "unit": "%"},
      {"measurement": "Injury evaluation", "setting": "[3]; 6.25 g/ha", "result": 42, "unit": "%"},
      {"measurement": "Injury evaluation", "setting": "[3]; 12.5 g/ha", "result": 42, "unit": "%"},
      {"measurement": "Injury evaluation", "setting": "[4]; 1.56 g/ha", "result": 12, "unit": "%"},
      {"measurement": "Injury evaluation", "setting": "[4]; 3.125 g/ha", "result": 23, "unit": "%"},
      {"measurement": "Injury evaluation", "setting": "[4]; 6.25 g/ha", "result": 58, "unit": "%"},
      {"measurement": "Injury evaluation", "setting": "[4]; 12.5 g/ha", "result": 52, "unit": "%"},
      {"measurement": "increased tolerance versus wild-type plants", "setting": "[5]; P321A plants, highest dose applied", "result": 40, "unit": "fold"},
      {"measurement": "Injury evaluation", "setting": "[5]; 1.56 g/ha", "result": 0, "unit": "%"},
      {"measurement": "Injury evaluation", "setting": "[5]; 3.125 g/ha", "result": 0, "unit": "%"},
      {"measurement": "Injury evaluation", "setting": "[5]; 6.25 g/ha", "result": 2, "unit": "%"},
      {"measurement": "Injury evaluation", "setting": "[5]; 12.5 g/ha", "result": 2.5, "unit": "%"},
      {"measurement": "Normalized tolerance index TI Inhibitor 1", "setting": "Avena HPPD", "result": 1.3}
    ]}
  ]
}
